# Values joined by “and” are separate entries in the source; they are usually repeats but may differ in a detail not shown here. Identical values can stand only once. Records with an inconclusive call do not appear. Active and inactive are the calls of the source.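 Rule for the calls: active = Compounds that reduce signal, with fitted half-maximal dose at or under twice the top valid tested dose; inconclusive = Poor fit, or flat curve losing 30 to 70% of signal; inactive = Potency past limit, flat within 30%, or opposite direction.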
# Tested on: HEK293T viability, ATP luminescence (CellTiter-Glo), 48 h
# Assay: viability loss in HEK293T cells – cell-based, ATP luminescence, cherry-pick samples, cytotoxicity control, dose response (AID 687005)
# Details: not given
row,Structure (SMILES),AC50
1,COc1ccc(C(=O)NC(=S)Nc2cccc(Cl)c2N2CCOCC2)cc1[N+](=O)[O-],25.1 µM and 6.55 µM
2,COC(=O)C1=C(C)N(Cc2ccccc2)C(=S)NC1c1cccc(OC)c1 (centres undefined),13.1 µM and 4.84 µM

# Tested on: not listed separately
# Assay: as above
# Details: HEK293T viability, ATP luminescence (CellTiter-Glo), 48 h; at 18 µM (top of the series)
row,Structure (SMILES),"activity change, negative = cytotoxicity"
1,CN1CCN(C(=O)CN(c2ccc(I)cc2)S(=O)(=O)c2ccccc2)CC1,45.2% (inactive)

# Same assay, conditions: HEK293T viability, ATP luminescence (CellTiter-Glo), 48 h; at 23.5 µM (top of the series)
row,Structure (SMILES),"activity change, negative = cytotoxicity"
1,C[C@H](CO)N1C[C@H](C)[C@H](CN(C)C(=O)Nc2cccc3ccccc23)Oc2ccc(NC(=O)Cc3ccccc3)cc2CC1=O,10.3% (inactive)
2,C[C@@H]1CN([C@@H](C)CO)C(=O)c2cc(NC(=O)Nc3ccc4c(c3)OCO4)ccc2O[C@H]1CN(C)Cc1ccc(Oc2ccccc2)cc1,-38.4% (inactive)
3,COC(=O)C1=C(C)N(Cc2ccc(Cl)cc2)C(=S)NC1c1ccc(Br)cc1 (centres undefined),-20.4% (inactive)
4,COc1ccc(CN(C)C[C@@H]2Oc3ccc(NC(=O)C4CC4)cc3C(=O)N([C@@H](C)CO)C[C@H]2C)cc1,8.64% (inactive)

# Same assay, conditions: HEK293T viability, ATP luminescence (CellTiter-Glo), 48 h; at 26 µM (top of the series)
row,Structure (SMILES),"activity change, negative = cytotoxicity"
1,C[C@H](NC(=O)C[C@@H]1CC[C@@H]2[C@H](COC[C@@H](O)CN2C(=O)Nc2cccc(F)c2)O1)c1ccccc1,-12.7% (inactive)
2,C[C@H](CO)N1C[C@H](C)[C@H](CN(C)C(=O)c2ccccn2)Oc2ncc(-c3ccccc3)cc2C1=O,-0.807% (inactive)
3,Cc1noc(C)c1NC(=O)N(C)C[C@@H]1Oc2ccc(NC(=O)C3CC3)cc2CC(=O)N([C@H](C)CO)C[C@@H]1C,30.7% (inactive)
4,C[C@@H]1CN([C@@H](C)CO)C(=O)c2cccc(N(C)C)c2O[C@H]1CN(C)C(=O)Nc1ccc(C(F)(F)F)cc1,-5.69% (inactive)
5,O=C(C[C@@H]1CC[C@@H]2[C@H](COC[C@H](O)CN2Cc2cccc(C(F)(F)F)c2)O1)NCc1ccccc1,4.02% (inactive)
6,C[C@H]1CN([C@@H](C)CO)S(=O)(=O)c2ccc(C#Cc3cccc(F)c3)cc2O[C@@H]1CN(C)C,-49.7% (inactive)
7,COc1ccccc1NC(=O)N[C@H]1CC[C@@H](CCn2cc(-c3ccccc3OC)nn2)O[C@@H]1CO,-9.57% (inactive)
8,Cc1cc(C)c(NC(=O)C(C)N2CCCCCC2)c(C)c1 (centres undefined),16.2% (inactive)
9,COc1cccc(S(=O)(=O)Nc2ccc3c(c2)OC[C@H](C)NC[C@@H](C)[C@H](OC)CN(C)C3=O)c1,-4.71% (inactive)
10,C/C=C/c1cnc2c(c1)C(=O)N([C@H](C)CO)C[C@@H](C)[C@@H](CN(C)C(=O)C1CCCCC1)O2,38.1% (inactive)
11,CCCNC(=O)N1[C@H](CO)[C@@H](c2ccc(C3=CCCC3)cc2)[C@@H]1CN(C)C(C)=O,37.6% (inactive)
12,CCNC(=O)CN(c1ccc(Cl)cc1)S(=O)(=O)c1ccccc1,4.12% (inactive)
13,CC(C)NC(=O)NCC[C@@H]1CC[C@@H](NC(=O)CN(C)C)[C@@H](CO)O1,44.1% (inactive)
14,O=C(NC1CCCC1)N1CCCCN2[C@H](CO)[C@H](c3ccc(-c4cncnc4)cc3)[C@@H]2C1,-34.7% (inactive)
15,Cc1ccc(NC(=O)[C@H](C)NC(=O)C2CCN(C(=O)[C@@H](N)C(C)C)CC2)cc1,-1.97% (inactive)
16,CCC(=O)Nc1ccc2c(c1)OC[C@H](C)N(C(=O)c1ccc(F)cc1)C[C@@H](C)[C@@H](OC)CN(C)C2=O,62.2% (inactive)

row,Structure (SMILES),"activity change, negative = cytotoxicity"
1,O=C(O)C[C@@H]1CC[C@@H]2[C@H](COC[C@H](O)CN2S(=O)(=O)c2ccc(F)cc2)O1,-25.9% (inactive)
2,O=C(N[C@H]1CC[C@H](CCn2cc(-c3ccccn3)nn2)O[C@H]1CO)c1ccc(F)cc1,-9.35% (inactive)
3,CC(NC(=O)COc1ccc([N+](=O)[O-])cc1)c1ccccc1 (centres undefined),18.2% (inactive)
4,Cc1ccccc1S(=O)(=O)N[C@@H]1CC[C@H](CCNS(=O)(=O)c2cccc(F)c2)O[C@H]1CO,-17.7% (inactive)
5,CNC[C@@H]1Oc2c(NS(=O)(=O)c3cccs3)cccc2C(=O)N([C@@H](C)CO)C[C@H]1C,28.1% (inactive)
6,COc1cccc(CNC(=O)COc2ccc(C(=O)c3ccccc3)cc2)c1,10% (inactive)
7,COc1ccc(C2CC(c3cccs3)=NN2C(=O)c2ccc(Br)o2)cc1 (centres undefined),16.8% (inactive)
8,C[C@H](O)C#Cc1ccc2c(c1)O[C@H](CN(C)Cc1ccncc1)[C@H](C)CN([C@H](C)CO)S2(=O)=O,29.2% (inactive)
9,Cc1cc(C)c(NC(=O)C2CCC(=O)N2)c(C)c1 (centres undefined),12.8% (inactive)
10,COc1ccccc1C(=O)N1C[C@H]2[C@@H](c3ccccc31)[C@@H](CO)N2C(=O)Cc1ccccc1,-6.87% (inactive)
11,C[C@@H]1CN([C@H](C)CO)C(=O)c2cc(-c3cccc(F)c3)cnc2O[C@H]1CN(C)Cc1ccccc1,-7.8% (inactive)
12,CC(C)NC(=O)Nc1ccc2c(c1)C(=O)N([C@@H](C)CO)C[C@H](C)[C@@H](CN(C)C(=O)CCC(F)(F)F)OCCCC[C@H](C)O2,42.8% (inactive)
13,CCOC(=O)NC(=S)Nc1ccc(C(C)(C)C)cc1Br,9.89% (inactive)
14,O=C(NC[C@@H]1[C@H](c2ccccc2)[C@@H](CO)N1C(=O)Cc1cccnc1)C1CCC1,8.39% (inactive)
15,CCC(=O)N1[C@@H]2Cn3c(ccc(C4=CCCCC4)c3=O)[C@H]1[C@@H](C(=O)N[C@H](C)c1ccccc1)[C@@H]2CO,-16.5% (inactive)

# Same assay, conditions: HEK293T viability, ATP luminescence (CellTiter-Glo), 48 h; at 28.5 µM (top of the series)
row,Structure (SMILES),"activity change, negative = cytotoxicity"
1,CNC(=O)CN(c1ccccc1)S(=O)(=O)c1ccc(F)cc1,-7.63% (inactive)
